This passage reports IC50 results from ChEMBL document CHEMBL5726907, “FXR (NR1H4) modulating compounds” (2018).

For the assay, the target named is T1, Bile acid receptor (Homo sapiens, UniProt Q96RI1).
T1 sequence (Q96RI1 whole entry): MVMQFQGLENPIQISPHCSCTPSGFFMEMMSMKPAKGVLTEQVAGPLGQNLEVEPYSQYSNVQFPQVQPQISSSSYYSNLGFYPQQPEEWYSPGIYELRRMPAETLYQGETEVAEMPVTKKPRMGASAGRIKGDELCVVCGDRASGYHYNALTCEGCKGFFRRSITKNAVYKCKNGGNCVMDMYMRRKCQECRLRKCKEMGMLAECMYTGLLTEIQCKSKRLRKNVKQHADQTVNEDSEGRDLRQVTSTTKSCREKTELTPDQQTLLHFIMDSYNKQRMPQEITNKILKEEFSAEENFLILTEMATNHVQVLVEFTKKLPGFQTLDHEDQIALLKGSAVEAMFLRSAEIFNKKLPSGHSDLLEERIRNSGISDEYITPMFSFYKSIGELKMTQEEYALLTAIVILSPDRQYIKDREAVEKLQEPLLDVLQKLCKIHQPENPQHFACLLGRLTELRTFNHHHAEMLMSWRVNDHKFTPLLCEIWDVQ
The experiment in a line: FRET Activity Assay: The human FXRalpha LBD was expressed in E. coli strain BL21(DE3) as an N-terminally GST tagged fusion protein. The DNA encoding the FXR ligand binding domain was cloned into vector pDEST15 (Invitrogen). Expression was under control of an IPTG inducible T7 promoter. The amino acid boundaries of the ligand binding domain were amino acids 187-472 of Database entry NM_005123 (RefSeq). Expression and purification of the FXR-LBD: An overnight preculture of a transformed E. coli strain was diluted 1:20 in LB-Ampicillin medium and grown at 30° C. to an optical density of =0.4-0.6. Gene expression was then induced by addition of 0.5 mM IPTG. Cells were incubated an additional 6 h at 30° C., 180 rpm. Cells were collected by centrifugation (7000×g, 7 min, rt). Per liter of original cell culture, cells were resuspended in 10 mL lysis buffer (50 mM Glucose, 50 mM Tris pH 7.9, 1 mM EDTA and 4 mg/mL lysozyme) and left on ice for 30 min. Cells were then subjected to sonication and cell debris removed via centrifugation (22000×g, 30 min, 4° C.). Per 10 mL of supernatant 0.5 mL prewashed Glutathione 4B sepharose slurry (Qiagen) was added and the suspension kept slowly rotating for 1 h at 4° C. Glutathione 4B sepharose beads were pelleted by centrifugation (2000× g, 15 sec, 4° C.) and washed twice in wash buffer (25 mM Tris, 50 mM KCl, 4 mM MgCl2 and IM NaCl). […].

Regarding `O=C(O)c1cc(F)c2nc(C3(O)C4COCC3CC(OCc3c(-c5c(Cl)cccc5Cl)noc3C3CC3)C4)sc2c1` (configuration not stated), the IC50 was 19 nM. `O=C(O)c1ccc2nc(C3(O)C4COCC3CC(OCc3c(-c5c(Cl)cccc5Cl)noc3C3CC3)C4)sc2c1` (configuration not stated) showed an IC50 of 30 nM.

The term IC50 denotes the midpoint of a concentration-inhibition curve. Lower therefore signals higher potency.
